Assay results taken from patent US12643910B2, “Substituted pyrazolo[3,4-b]pyridines as ectonucleotide pyrophosphatase/phosphodiesterase 1 (ENPP1) modulators” (SANFORD BURNHAM PREBYS MEDICAL DISCOVERY INSTITUTE, priority 2019, dated 2026).

How the values were obtained:
human ENPP1 = target: T1, human ENPP1 (Homo sapiens, UniProt P22413); assay: ENPP1 assay with ATP substrate (Transcreener AMP2/GMP2 TR-FRET); assay type: biochemical; conditions: 1 hour at room temperature
T1 construct: made in house
T1 sequence (P22413 1-925): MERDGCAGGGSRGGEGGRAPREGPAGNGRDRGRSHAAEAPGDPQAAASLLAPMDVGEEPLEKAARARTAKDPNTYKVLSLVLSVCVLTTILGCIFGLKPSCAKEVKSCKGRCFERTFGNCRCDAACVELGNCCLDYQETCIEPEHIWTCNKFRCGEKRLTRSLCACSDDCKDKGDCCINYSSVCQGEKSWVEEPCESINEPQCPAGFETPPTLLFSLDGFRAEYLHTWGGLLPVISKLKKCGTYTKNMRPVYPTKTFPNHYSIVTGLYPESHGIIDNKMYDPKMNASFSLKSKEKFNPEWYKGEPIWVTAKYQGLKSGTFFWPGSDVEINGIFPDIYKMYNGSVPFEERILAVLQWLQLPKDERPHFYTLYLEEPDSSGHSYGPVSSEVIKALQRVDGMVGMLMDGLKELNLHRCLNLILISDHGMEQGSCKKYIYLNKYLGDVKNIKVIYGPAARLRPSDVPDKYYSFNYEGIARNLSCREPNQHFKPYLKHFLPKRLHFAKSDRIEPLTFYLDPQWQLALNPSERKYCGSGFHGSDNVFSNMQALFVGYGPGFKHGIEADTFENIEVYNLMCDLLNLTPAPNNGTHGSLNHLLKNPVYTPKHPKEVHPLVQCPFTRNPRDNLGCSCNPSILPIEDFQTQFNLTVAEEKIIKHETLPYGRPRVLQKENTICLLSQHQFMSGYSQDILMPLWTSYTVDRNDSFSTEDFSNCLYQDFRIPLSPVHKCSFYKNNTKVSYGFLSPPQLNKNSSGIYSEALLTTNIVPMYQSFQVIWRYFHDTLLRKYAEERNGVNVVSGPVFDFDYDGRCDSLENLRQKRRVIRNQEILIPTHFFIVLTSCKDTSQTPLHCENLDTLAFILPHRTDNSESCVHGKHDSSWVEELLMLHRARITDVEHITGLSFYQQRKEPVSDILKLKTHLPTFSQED
Procedure, shortened: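 Reaction ran 1 h at room temperature in pH 7.5 Tris with MgCl2, TCEP, Tween 20 and 1% DMSO. ATP was added as a 300 nM stock and enzyme as an 8.5 μM stock. After EDTA stop, AMP was read by TR-FRET tracer displacement. Percent inhibition used enzyme/no-enzyme controls; IC50 was fitted with a variable slope.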

ENPP3 = target: T2, ENPP3 (Homo sapiens, UniProt O14638); assay: ENPP3 Km ATP assay; assay type: biochemical; conditions: ATP at Km
T2 sequence (O14638 1-875): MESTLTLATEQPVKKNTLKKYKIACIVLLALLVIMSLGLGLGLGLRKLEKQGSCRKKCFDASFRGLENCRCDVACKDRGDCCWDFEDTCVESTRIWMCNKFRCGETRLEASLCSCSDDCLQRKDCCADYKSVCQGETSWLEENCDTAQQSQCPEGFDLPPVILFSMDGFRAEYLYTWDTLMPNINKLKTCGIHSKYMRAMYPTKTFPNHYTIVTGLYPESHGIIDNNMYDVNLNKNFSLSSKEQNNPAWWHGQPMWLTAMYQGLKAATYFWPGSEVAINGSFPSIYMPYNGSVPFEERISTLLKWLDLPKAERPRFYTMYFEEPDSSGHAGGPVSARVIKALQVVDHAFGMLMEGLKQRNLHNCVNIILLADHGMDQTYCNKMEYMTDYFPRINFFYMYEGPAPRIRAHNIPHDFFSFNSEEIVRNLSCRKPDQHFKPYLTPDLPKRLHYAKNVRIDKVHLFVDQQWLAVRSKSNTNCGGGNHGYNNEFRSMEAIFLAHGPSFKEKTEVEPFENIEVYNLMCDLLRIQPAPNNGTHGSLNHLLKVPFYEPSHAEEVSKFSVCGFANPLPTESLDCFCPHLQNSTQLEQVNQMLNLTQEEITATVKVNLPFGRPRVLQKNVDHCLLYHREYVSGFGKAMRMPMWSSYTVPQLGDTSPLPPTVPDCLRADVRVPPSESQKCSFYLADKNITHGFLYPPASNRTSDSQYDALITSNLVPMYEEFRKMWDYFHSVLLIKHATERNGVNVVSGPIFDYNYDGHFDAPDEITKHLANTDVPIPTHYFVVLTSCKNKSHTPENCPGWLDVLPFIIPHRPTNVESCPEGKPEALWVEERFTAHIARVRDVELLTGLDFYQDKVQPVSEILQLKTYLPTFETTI

SMILES | IC50 (human ENPP1) | IC50 (ENPP3)
Cn1ncc2c(NCc3ccc(S(N)(=O)=O)cn3)ccnc21 [Example 2.71, 6-(((1-Methyl-1H-pyrazolo[3,4-b]pyridin-4-yl)amino)methyl)pyridine-3-sulfonamide] | < 0.1 µM | 0.1 to 1 µM
CN(c1ccccc1)c1nc(NCc2ccc(S(N)(=O)=O)cc2)c2cnn(C)c2n1 [Example 2.36, 4-(((1-Methyl-6-(methyl(phenyl)amino)-1H-pyrazolo[3,4-d]pyrimidin-4-yl)amino)methyl)-benzenesulfonamide] | > 20 µM | 0.1 to 1 µM
C=Cc1nc(NCc2ccc(S(N)(=O)=O)cc2)c2cnn(C)c2n1 [Example 2.39, 4-(((1-Methyl-6-vinyl-1H-pyrazolo[3,4-d]pyrimidin-4-yl)amino)methyl)benzenesulfonamide] | < 0.1 µM | < 0.1 µM
CCSc1nc(NCc2ccc(S(N)(=O)=O)cc2)c2c(Br)nn(C)c2n1 [Example 2.110, 4-((3-Bromo-6-(ethylsulfanyl)-1-methyl-1H-pyrazolo[3,4-d]pyrimidin-4-yl)aminomethyl)-benzenesulfonamide] | < 0.1 µM | < 0.1 µM
COc1cc(CNc2nc(-c3ccccn3)nc3scc(-c4ccccc4)c23)ccc1S(N)(=O)=O [Example 1.16, 2-Methoxy-4-(((5-phenyl-2-(pyridin-2-yl)thieno[2,3-d]pyrimidin-4-yl)amino)methyl)benzenesulfonamide] | 0.1 to 1 µM | 1 to 20 µM
CCc1nc(NCc2ccc(S(N)(=O)=O)cc2)c2cnn(C)c2n1 [Example 2.40, 4-(((6-Ethyl-1-methyl-1H-pyrazolo[3,4-d]pyrimidin-4-yl)amino)methyl)benzenesulfonamide] | < 0.1 µM | 0.1 to 1 µM
Cc1csc2c(N3CCC(NCCCc4ccccc4)CC3)ncnc12 [Example 3.27, 1-(7-Methylthieno[3,2-d]pyrimidin-4-yl)-N-(3-phenylpropyl)piperidin-4-amine] | 0.1 to 1 µM | > 20 µM
COc1cc(S(N)(=O)=O)ccc1CNc1ncnc2c1cnn2C [Example 2.3, 3-Methoxy-4-(((1-methyl-1H-pyrazolo[3,4-d]pyrimidin-4-yl)amino)methyl)-benzenesulfonamide] | 0.1 to 1 µM | 1 to 20 µM
Cn1ncc2c(NCc3ccc(S(N)(=O)=O)cc3)cc(N)nc21 [Example 2.78, 4-(((6-Amino-1-methyl-1H-pyrazolo[3,4-b]pyridin-4-yl)amino)methyl)-benzenesulfonamide] | 0.1 to 1 µM | 0.1 to 1 µM
NS(=O)(=O)c1ccc(CNc2cc(-c3ccccn3)nc3scc(-c4ccccc4)c23)cc1 [Example 1.47, 4-(((3-Phenyl-6-(pyridin-2-yl)thieno[2,3-b]pyridin-4-yl)amino)methyl)benzenesulfonamide] | < 0.1 µM | 1 to 20 µM
NS(=O)(=O)c1ccc(CNc2ncnc3scc(Br)c23)cc1 [Example 1.49, 4-((5-Bromothieno[2,3-d]pyrimidin-4-yl)aminomethyl)benzenesulfonamide] | 0.1 to 1 µM | < 0.1 µM
Cc1csc2c(N3CCC(NCc4ccc(F)cc4)CC3)ncnc12 [Example 3.42, N-(4-Fluorobenzyl)-1-(7-methylthieno[3,2-d]pyrimidin-4-yl)piperidin-4-amine] | 1 to 20 µM | > 20 µM
NS(=O)(=O)c1ccc(CNc2nc(N3CCOCC3)nc3scc(-c4ccccc4)c23)cc1 [Example 1.38, 4-(((2-Morpholino-5-phenylthieno[2,3-d]pyrimidin-4-yl)amino)methyl)-benzenesulfonamide] | < 0.1 µM | < 0.1 µM
COc1ccc(CNc2nc(-c3ccccn3)nc3scc(-c4ccccc4)c23)cc1 [Example 1.3, N-(4-Methoxybenzyl)-5-phenyl-2-(pyridin-2-yl)thieno[2,3-d]pyrimidin-4-amine] | > 20 µM | > 20 µM
Cc1nn(C)c2ncnc(NCc3ccc(S(N)(=O)=O)cc3)c12 [Example 2.45, 4-(((1,3-Dimethyl-1H-pyrazolo[3,4-d]pyrimidin-4-yl)amino)methyl)benzenesulfonamide] | 0.1 to 1 µM | 0.1 to 1 µM
Cn1ncc2c(NCc3ccc(S(N)(=O)=O)cc3)nc(N3CCOCC3)nc21 [Example 2.29, 4-(((1-Methyl-6-morpholino-1H-pyrazolo[3,4-d]pyrimidin-4-yl)amino)methyl)-benzenesulfonamide] | > 20 µM | 0.1 to 1 µM
Cc1nc(N2CCC(NCCCc3ccncc3)CC2)c2scc(C)c2n1 [Example 3.52, 1-(2,7-Dimethylthieno[3,2-d]pyrimidin-4-yl)-N-(3-(pyridin-4-yl)propyl)piperidin-4-amine] | > 20 µM | > 20 µM
Cn1ncc2c(NCc3ccc(S(N)(=O)=O)cc3)nccc21 [Example 2.66, 4-(((1-Methyl-1H-pyrazolo[4,3-c]pyridin-4-yl)amino)methyl)benzenesulfonamide] | 1 to 20 µM | 1 to 20 µM
CN(C)CCCNc1nc(NCc2ccc(S(N)(=O)=O)cc2)c2c(-c3ccccc3)csc2n1 [Example 1.59, 4-((2-(3-Dimethylaminopropyl)amino-5-phenylthieno[2,3-d]pyrimidin-4-yl)aminomethyl)-benzenesulfonamide] | < 0.1 µM | < 0.1 µM
COCCNc1nc(NCc2ccc(S(N)(=O)=O)cc2)c2c(-c3ccccc3)csc2n1 [Example 1.54, 4-((2-(2-Methoxyethyl)amino-5-phenylthieno[2,3-d]pyrimidin-4-yl)aminomethyl)-benzenesulfonamide] | < 0.1 µM | < 0.1 µM
Cn1ncc2c(NCc3ccc(S(N)(=O)=O)cc3F)cc(Cl)nc21 [Example 2.143, 4-(((6-Chloro-1-methyl-1H-pyrazolo[3,4-b]pyridin-4-yl)amino)methyl)-3-fluorobenzenesulfonamide] | < 0.1 µM | < 0.1 µM
Cc1csc2c(N3CCC(NC(=O)CCc4ccnc(F)c4)CC3)ncnc12 [Example 3.36, 3-(2-Fluoropyridin-4-yl)-N-(1-(7-methylthieno[3,2-d]pyrimidin-4-yl)piperidin-4-yl)propanamide] | 1 to 20 µM | > 20 µM
Cc1csc2c(N3CCC(NCCCc4ccncc4)CC3)nc(-c3ccccc3)nc12 [Example 3.61, 1-(7-Methyl-2-phenylthieno[3,2-d]pyrimidin-4-yl)-N-(3-(pyridin-4-yl)propyl)piperidin-4-amine] | > 20 µM | > 20 µM
COc1cc(CCC(=O)NC2CCN(c3ncnc4c(C)csc34)CC2)ccn1 [Example 3.8] | 1 to 20 µM | > 20 µM
CCn1ncc2c(NCc3ccc(S(N)(=O)=O)cc3)ccnc21 [Example 2.122, 4-((1-Ethyl-1H-pyrazolo[3,4-b]pyridin-4-yl)aminomethyl)benzenesulfonamide] | < 0.1 µM | 1 to 20 µM
Cc1nc(NCc2ccc(S(N)(=O)=O)cc2)c2c(C3CCCC3)nn(C)c2n1 [Example 2.135, 4-((3-Cyclopentyl-1,6-dimethyl-1H-pyrazolo[3,4-d]pyrimidin-4-yl)aminomethyl)benzenesulfonamide] | 1 to 20 µM | 1 to 20 µM
